Results: US20210009624A1, “[18F] FMAU LABELING FOR PET IMAGING OF CANCER PATIENTS” (University of Southern California, priority 2018, published 2021)

Tests used:
[1] = test system: primary breast tumor as well as metastatic disease; test: PET imaging of [18F]FMAU in breast cancer patients (Phase I); format: in vivo, human; conditions: FIG. 3
Excerpt: (§1) In addition to animal models, we also studied the [^18F]FMAU obtained through our synthesis method using the labeling kit in patients (Phase I) with known breast and prostate cancer. […] In view of the promising clinical Phase I data of [^18F]FMAU, it is clear that FMAU is a promising candidate for PET imaging of tumor cell proliferation, and may ultimately complement the role of FLT or other cell proliferation markers currently under development.

[2] = Adverse reactions in Phase I patients with breast and prostate cancer; format: in vivo, human; conditions: all studied patients (Phase I, known breast and prostate cancer)
Excerpt: as §1

[3] = Circulating metabolites in human blood after injection of [18F]FMAU; format: in vivo; conditions: human blood at 1 hour post-injection
Excerpt: as §1

## Cc1cn([C@@H]2O[C@H](CO)C(O)C2[18F])c(=O)[nH]c1=O (stereo partly drawn) [[^18F]FMAU, 2′-deoxy-2′-[^18F]fluoro-5-methyl-1-beta-D-arabinofuranosyl-uracil]
[1]
  primary breast tumor as well as metastatic disease uptake of [18F]FMAU (PET imaging): excellent
[2]
  adverse reactions: No adverse reactions were observed
[3]
  circulating metabolites in human blood: No major circulating metabolites were identified
